Measured values as given in patent US9580437B2, “Triazolopyrimidine compounds and uses thereof” (Novartis AG, priority 2014, dated 2017).
pIC50: −log10 of the molar value.

Tests used:
[1] = target: wild type PRC2 (wtPRC2) complex (Homo sapiens (Human), UniProt O75530); experiment: EED LC-MS assay; assay type: biochemical; conditions: read-out: (b) IC50 EED LC-MS Qualified
Description: A 6 μL solution of 3 μM of the peptide substrate H3K27Me0 (histone H3[21-44]-biotin) in reaction buffer was added to initiate each reaction. […] ELISA (H3K27 Methylation) Assay

EED (1-441)-His protein = EED (1-441)-His protein (Homo sapiens (Human), UniProt O75530); experiment: EED-H3K27Me3 peptide competition binding assay by AlphaScreen; conditions: read-out: (a) IC50 EED Alphascreen binding Qualified
Excerpt: EED-H3K27Me3 peptide competition binding assay by AlphaScreen (α-screen)

Chain of wild type PRC2 (wtPRC2) complex (O75530 whole entry): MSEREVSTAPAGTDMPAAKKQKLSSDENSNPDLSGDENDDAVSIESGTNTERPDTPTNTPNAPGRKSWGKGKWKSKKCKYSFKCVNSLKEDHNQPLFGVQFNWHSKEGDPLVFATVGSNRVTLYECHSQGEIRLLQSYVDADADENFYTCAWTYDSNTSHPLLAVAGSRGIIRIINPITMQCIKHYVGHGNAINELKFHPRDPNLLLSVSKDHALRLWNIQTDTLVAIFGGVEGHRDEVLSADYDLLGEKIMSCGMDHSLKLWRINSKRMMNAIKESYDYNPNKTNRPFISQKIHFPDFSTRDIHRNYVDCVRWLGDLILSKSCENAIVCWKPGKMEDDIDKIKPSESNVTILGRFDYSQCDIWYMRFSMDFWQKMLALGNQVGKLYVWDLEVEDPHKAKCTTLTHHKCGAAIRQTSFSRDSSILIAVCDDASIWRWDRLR
Chain of wild type PRC2 (wtPRC2) complex (Q15910 whole entry partner): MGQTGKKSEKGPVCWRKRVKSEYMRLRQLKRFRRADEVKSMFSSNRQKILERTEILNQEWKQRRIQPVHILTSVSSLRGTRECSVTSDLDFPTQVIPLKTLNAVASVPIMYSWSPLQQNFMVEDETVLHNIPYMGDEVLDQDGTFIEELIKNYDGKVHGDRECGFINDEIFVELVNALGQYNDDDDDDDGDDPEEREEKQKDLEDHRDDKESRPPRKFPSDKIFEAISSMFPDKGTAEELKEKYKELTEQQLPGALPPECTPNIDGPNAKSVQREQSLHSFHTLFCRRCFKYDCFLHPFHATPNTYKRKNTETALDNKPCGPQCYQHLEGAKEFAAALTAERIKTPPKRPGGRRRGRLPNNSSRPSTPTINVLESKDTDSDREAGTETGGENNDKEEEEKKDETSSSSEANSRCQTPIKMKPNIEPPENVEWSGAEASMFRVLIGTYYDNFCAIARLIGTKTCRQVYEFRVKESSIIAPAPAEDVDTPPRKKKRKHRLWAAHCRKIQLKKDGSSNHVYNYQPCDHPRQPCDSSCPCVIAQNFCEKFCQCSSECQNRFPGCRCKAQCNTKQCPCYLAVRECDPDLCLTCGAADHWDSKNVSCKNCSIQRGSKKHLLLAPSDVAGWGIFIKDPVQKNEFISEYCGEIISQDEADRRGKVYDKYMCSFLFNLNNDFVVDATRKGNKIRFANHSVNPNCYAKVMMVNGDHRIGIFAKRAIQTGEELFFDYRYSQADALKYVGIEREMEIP
Chain of wild type PRC2 (wtPRC2) complex (Q15022 whole entry partner): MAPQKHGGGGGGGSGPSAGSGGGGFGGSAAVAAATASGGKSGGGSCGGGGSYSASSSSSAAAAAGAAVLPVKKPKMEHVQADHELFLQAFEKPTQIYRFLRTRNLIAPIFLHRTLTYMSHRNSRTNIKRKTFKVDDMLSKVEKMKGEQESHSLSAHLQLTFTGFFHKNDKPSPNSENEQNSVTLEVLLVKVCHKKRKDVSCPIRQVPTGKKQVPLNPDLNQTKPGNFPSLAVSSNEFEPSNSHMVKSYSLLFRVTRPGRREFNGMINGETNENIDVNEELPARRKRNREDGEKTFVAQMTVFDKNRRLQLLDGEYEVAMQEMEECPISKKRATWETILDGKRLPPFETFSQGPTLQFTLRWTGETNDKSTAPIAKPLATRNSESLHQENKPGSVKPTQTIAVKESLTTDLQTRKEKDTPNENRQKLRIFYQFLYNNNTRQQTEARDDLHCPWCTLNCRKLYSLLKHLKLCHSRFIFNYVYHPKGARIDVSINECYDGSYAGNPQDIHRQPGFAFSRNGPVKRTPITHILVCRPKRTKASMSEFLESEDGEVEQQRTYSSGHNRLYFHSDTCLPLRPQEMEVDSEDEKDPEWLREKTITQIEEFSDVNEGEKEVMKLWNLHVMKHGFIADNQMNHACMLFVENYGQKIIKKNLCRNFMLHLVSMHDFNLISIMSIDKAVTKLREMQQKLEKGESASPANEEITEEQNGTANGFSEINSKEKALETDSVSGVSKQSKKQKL
Chain of EED (1-441)-His protein (O75530 whole entry): as the sequence (O75530 whole entry) above

pIC50 [1] | pIC50 (EED (1-441)-His protein) | SMILES
7.96 | 8.17 | CC(=O)N1CCN(CCc2ccc(-c3cnc(NCc4cccc5c4CCO5)n4cnnc34)cn2)CC1 [Example 108, 1-(4-(2-(5-(5-(((2,3-dihydrobenzofuran-4-yl)methyl)amino)-[1,2,4]triazolo[4,3-c]pyrimidin-8-yl)pyridin-2-yl)ethyl)piperazin-1-yl)ethanone]
8.31 | 8.28 | Fc1ccncc1-c1cnc(NCc2c(F)ccc3c2CCO3)n2cnnc12 [Example 47, N-((5-fluoro-2,3-dihydrobenzofuran-4-yl)methyl)-8-(4-fluoropyridin-3-yl)-[1,2,4]triazolo[4,3-c]pyrimidin-5-amine]
7.71 | 7.89 | CN(C)c1ccc(-c2cnc(NCc3cccc4c3CCO4)n3cnnc23)cn1 [Example 61, N-((2,3-dihydrobenzofuran-4-yl)methyl)-8-(6-(dimethylamino)pyridin-3-yl)-[1,2,4]triazolo[4,3-c]pyrimidin-5-amine]
7.16 | 7.47 | CN(C)CCN(C)C(=O)c1ccc(-c2cnc(NCc3cccc4c3CCO4)n3cnnc23)cn1 [Example 102]
7.80 | 7.90 | O=CN1CCCN(c2ccc(-c3cnc(NCc4cccc5c4CCO5)n4cnnc34)cn2)CC1 [Example 113, 4-(5-(5-(((2,3-dihydrobenzofuran-4-yl)methyl)amino)-[1,2,4]triazolo[4,3-c]pyrimidin-8-yl)pyridin-2-yl)-1,4-diazepane-1-carbaldehyde]
7.48 | 7.51 | CN(C)C(=O)c1cccc(-c2cnc(NCc3cccc4c3CCO4)n3cnnc23)c1 [Example 43, 3-(5-(((2,3-dihydrobenzofuran-4-yl)methyl)amino)-[1,2,4]triazolo[4,3-c]pyrimidin-8-yl)-N,N-dimethylbenzamide]
8.08 | 8.41 | O=C(c1ccc(-c2cnc(NCc3c(F)ccc4c3CCO4)n3cnnc23)cn1)N1CCCC1 [Example 129, (5-(5-(((5-fluoro-2,3-dihydrobenzofuran-4-yl)methyl)amino)-[1,2,4]triazolo[4,3-c]pyrimidin-8-yl)pyridin-2-yl)(pyrrolidin-1-yl)methanone]
7.73 | 8.02 | Fc1ccc2c(c1CNc1ncc(-c3ccnnc3)c3nncn13)CCO2 [Example 202, N-((5-fluoro-2,3-dihydrobenzofuran-4-yl)methyl)-8-(pyridazin-4-yl)-[1,2,4]triazolo[4,3-c]pyrimidin-5-amine]
8.02 | 8.29 | Cc1nn(CCO)c(C)c1-c1cnc(NCc2c(F)ccc3c2CCO3)n2cnnc12 [Example 158, 2-(4-(5-(((5-fluoro-2,3-dihydrobenzofuran-4-yl)methyl)amino)-[1,2,4]triazolo[4,3-c]pyrimidin-8-yl)-3,5-dimethyl-1H-pyrazol-1-yl)ethanol]
7.38 | 7.91 | Cc1c(-c2cnc(NCc3cccc4c3CCO4)n3cnnc23)cnn1C [Example 64, N-((2,3-dihydrobenzofuran-4-yl)methyl)-8-(1,5-dimethyl-1H-pyrazol-4-yl)-[1,2,4]triazolo[4,3-c]pyrimidin-5-amine]
7.57 | 7.95 | COCCc1ccc(-c2cnc(NCc3cccc4c3CCO4)n3cnnc23)cn1 [Example 86, N-((2,3-dihydrobenzofuran-4-yl)methyl)-8-(6-(2-methoxyethyl)pyridin-3-yl)-[1,2,4]triazolo[4,3-c]pyrimidin-5-amine]
8.09 | 8.39 | Cc1cc(-c2cnc(NCc3c(F)ccc4c3CCO4)n3cnnc23)n(C)n1 [Example 1, 8-(1,3-dimethyl-1H-pyrazol-5-yl)-N-((5-fluoro-2,3-dihydrobenzofuran-4-yl)methyl)-[1,2,4]triazolo[4,3-c]pyrimidin-5-amine]
7.64 | 7.36 | Clc1ccccc1-c1cnc(NCc2cccc3c2CCO3)n2cnnc12 [Example 32, 8-(2-chlorophenyl)-N-((2,3-dihydrobenzofuran-4-yl)methyl)-[1,2,4]triazolo[4,3-c]pyrimidin-5-amine]
7.26 | 7.90 | CN(C)C(=O)c1ccc(-c2cnc(NCc3c(F)ccc4c3CCO4)n3cnnc23)cn1 [Example 140, 5-(5-(((5-fluoro-2,3-dihydrobenzofuran-4-yl)methyl)amino)-[1,2,4]triazolo[4,3-c]pyrimidin-8-yl)-N,N-dimethylpicolinamide]
7.70 | 7.74 | c1cc(CNc2ncc(-c3ccc(C4CC4)nc3)c3nncn23)c2c(c1)OCC2 [Example 65, 8-(6-cyclopropylpyridin-3-yl)-N-((2,3-dihydrobenzofuran-4-yl)methyl)-[1,2,4]triazolo[4,3-c]pyrimidin-5-amine]
8.22 | 8.46 | Cc1nn(C[C@@H](C)O)c(C)c1-c1cnc(NCc2c(F)ccc3c2CCO3)n2cnnc12 [Example 186, (2R)-1-(4-(5-(((5-fluoro-2,3-dihydrobenzofuran-4-yl)methyl)amino)-[1,2,4]triazolo[4,3-c]pyrimidin-8-yl)-3,5-dimethyl-1H-pyrazol-1-yl)propan-2-ol]
7.89 | 8.40 | FCc1ncccc1-c1cnc(NCc2c(F)ccc3c2CCO3)n2cnnc12 [Example 193, N-((5-fluoro-2,3-dihydrobenzofuran-4-yl)methyl)-8-(2-(fluoromethyl)pyridin-3-yl)-[1,2,4]triazolo[4,3-c]pyrimidin-5-amine]
7.53 | 7.80 | N#Cc1ccc(-c2cnc(NCc3cccc4c3CCO4)n3cnnc23)cn1 [Example 62, 5-(5-(((2,3-dihydrobenzofuran-4-yl)methyl)amino)-[1,2,4]triazolo[4,3-c]pyrimidin-8-yl)picolinonitrile]
7.65 | 8.06 | O=C1CN(Cc2ccc(-c3cnc(NCc4cccc5c4CCO5)n4cnnc34)cn2)CCN1 [Example 133, 4-((5-(5-(((2,3-dihydrobenzofuran-4-yl)methyl)amino)-[1,2,4]triazolo[4,3-c]pyrimidin-8-yl)pyridin-2-yl)methyl)piperazin-2-one]
6.37 | 6.14 | Cc1cc(-c2cnc(NCc3cccc4c3CCO4)n3cnnc23)cnc1N1CCCC1 [Example 103, N-((2,3-dihydrobenzofuran-4-yl)methyl)-8-(5-methyl-6-(pyrrolidin-1-yl)pyridin-3-yl)-[1,2,4]triazolo[4,3-c]pyrimidin-5-amine]
7.82 | 8.03 | OCCN1CCN(c2ccc(-c3cnc(NCc4cccc5c4CCO5)n4cnnc34)cn2)CC1 [Example 110, 2-(4-(5-(5-(((2,3-dihydrobenzofuran-4-yl)methyl)amino)-[1,2,4]triazolo[4,3-c]pyrimidin-8-yl)pyridin-2-yl)piperazin-1-yl)ethanol]
8.16 | 8.26 | Cn1nccc1-c1cnc(NCc2cccc3c2CCO3)n2cnnc12 [Example 152, N-((2,3-dihydrobenzofuran-4-yl)methyl)-8-(1-methyl-1H-pyrazol-5-yl)-[1,2,4]triazolo[4,3-c]pyrimidin-5-amine]
7.90 | 8.46 | Fc1ccc2c(c1CNc1ncc(-c3ccnn3C3CC3)c3nncn13)CCO2 [Example 192, 8-(1-cyclopropyl-1H-pyrazol-5-yl)-N-((5-fluoro-2,3-dihydrobenzofuran-4-yl)methyl)-[1,2,4]triazolo[4,3-c]pyrimidin-5-amine]
